Tests used:
Pde4 = experiment: qPCR of host Pde4 gene expression in Mtb-infected mouse lungs; assay type: in vivo, mice; conditions: 14 days of treatment (28 days postinfection)
Protocol: Total lung RNA (200 ng) was reverse-transcribed using Sprint RT kit (Clontech, CA, USA); 10 ng of cDNA were used for quantitative real-time PCR (qPCR), with Brilliant II SYBR master mix (Agilent Technologies, CA, USA) and gene-specific primers in a Stratagene Mx3005P instrument (Agilent Technologies, CA, USA). ROX was included in each reaction as an internal control. The qPCR assay was performed using four mouse samples in duplicate per group; the data were analyzed using MxPro Software (Agilent Technologies, CA, USA). Transcript levels of Gapdh were used as a reference against the test genes. Fold change in gene expression was calculated using the formula 2^−ΔΔCt, where ΔCt is the difference in threshold cycle (Ct) between the target gene and Gapdh; and ΔΔCt is the […] between untreated and CC-11050-treated samples. Primers were designed based on nucleotide sequences obtained from PrimerBank.^3

Mtb-infected mouse lungs = experiment: Genome-wide lung transcriptome (microarray, IPA network/GO analysis) of Mtb-infected mice; assay type: in vivo; conditions: TNF-a regulon network

`CCOc1cc([C@@H](CS(C)(=O)=O)N2Cc3cccc(NC(=O)C4CC4)c3C2=O)ccc1OC` [CC-11050, N-[2-[(1S)-1-(3-ethoxy-4-methoxyphenyl)-2-(methylsulfonyl)ethyl]-2,3-dihydro-3-oxo-1H-isoindol-4-yl]-(9Cl) cyclopropanecarboxamide] was tested, and the “Pde4Bv3 (Pde4B variant 3) expression in lungs versus Mtb-infected untreated” value (Pde4) was “No significant change” and the Ins1 expression (Mtb-infected mouse lungs) was 0.

— PMC4911353, “Pharmacologic Inhibition of Host Phosphodiesterase-4 Improves Isoniazid-Mediated Clearance of Mycobacterium tuberculosis” (Frontiers in Immunology, 2016)
